# Data taken from publication PMC10235067, “Increased renal elimination of endogenous and synthetic pyrimidine nucleosides in concentrative nucleoside transporter 1 deficient mice” (Nature Communications, 2023).
# “And” between values parts separate entries of the source, which are not always exact repeats. Equal values may be shown once.
# Assay: Gemcitabine plasma pharmacokinetics in Slc28a1+/+ and Slc28a1-/- mice
# Details: Gem-TP in plasma, single intravenous dose of gemcitabine 50mg/kg, individual mice
# Procedure: To collect blood, a 5 mm lancet was used to apply pressure to the submandibular vein and release blood flow. For retro-orbital collection, mice were anesthetized with 3% isoflurane in oxygen, and the blood was collected directly into heparinized capillary tubes by applying slight pressure to the medial canthus of the eye. Cardiac puncture was performed as the final collection method by first euthanizing the mice in a CO2 chamber and immediately performing posterior cardiac puncture by inserting a 27 G needle with a 1 ml syringe attachment into the heart. Once blood collection was completed, gentle pressure was applied to the blood collection area using gauze to stop the bleeding. Thirty microliters of blood was collected into heparinized capillary tubes at each time point, transferred into prelabeled 0.5 ml microcentrifuge tubes containing THU (10 µg/ml; final concentration), and immediately processed and snap-frozen following procedures outlined in the “Gemcitabine plasma pharmacokinetics” methods section.
# Gemcitabine and dFdU plasma concentrations were measured using a modified version of our previously published UHPLC–MS/MS method for nucleosides[74] […] Noncompartmental pharmacokinetic parameters (Cmax, Tmax, AUC, CL, T1/2, etc.) were calculated using WinNonlin 6.2 software (Pharsight; Mountain View, CA). […] The Cmax and Tmax were obtained from the concentration-time curve. The AUC was calculated according to the linear trapezoidal rule up to the last time point with a measurable concentration of the analyte of interest. Significant differences between Slc28a1^+/+ and Slc28a1^−/− mouse pharmacokinetic parameters (p < 0.05) were evaluated with an unpaired two-sided Student’s t-test.
# The resulting supernatant was evaporated to dryness in a SpeedVac, and the remaining residue was reconstituted in mobile phase A for subsequent analysis. […] Subsequent processing was identical to that for the plasma and urine samples.
# Briefly, the analysis was performed on an Imtakt Schzero SM C18 column, 2.1 × 100 mm, 3.0 µm particle size. The eluents used consisted of mobile phase A consisting of 50 mM ammonium formate:50 mM ammonium hydroxide (9:1, v/v) (pH = 8.6) and mobile phase B consisting of 50 mM ammonium formate:50 mM ammonium hydroxide (9:1, v/v):ACN (80:20, v/v) (pH = 8.6). […] The injection volume was 10 μL, and the autosampler temperature was set at 4 °C throughout the analysis.
# The Waters Triple Quadrupole Mass Spectrometer with an ESI source was operated in negative and positive ion mode at a spray voltage of 2.5 kV, capillary temperature of 150 °C, and vaporizer temperature of 250 °C. Compound optimization was performed manually using the MassLynx 4.1 Software AutoTune Wizard (Waters, Milford, MA) by infusion into the mass spectrometer using a T-connector. […] Analyze concentrations were determined and analyzed using MassLynx Mass Spectrometry Software (Waters; Milford, MA).
compound,measurement,setting,value
Nc1ccn([C@@H]2O[C@H](COP(=O)(O)OP(=O)(O)OP(=O)(O)O)[C@@H](O)C2(F)F)c(=O)n1 [Gem-TP],AUCINF_D_obs,KO (Slc28a1-/-) mice,509.381 kg·ng·min/mL/mg and 272.158 kg·ng·min/mL/mg and 1500.18 kg·ng·min/mL/mg and 597.23 kg·ng·min/mL/mg and 1529.97 kg·ng·min/mL/mg and 1749.53 kg·ng·min/mL/mg
same,AUCINF_D_pred,KO (Slc28a1-/-) mice,476.443 kg·ng·min/mL/mg and 251.621 kg·ng·min/mL/mg and 1436.01 kg·ng·min/mL/mg and 561.179 kg·ng·min/mL/mg and 1459.25 kg·ng·min/mL/mg and 1679.11 kg·ng·min/mL/mg
same,AUCINF_obs,KO (Slc28a1-/-) mice,25469 ng·min/mL and 13607.9 ng·min/mL and 75008.8 ng·min/mL and 29861.5 ng·min/mL and 76498.5 ng·min/mL and 87476.7 ng·min/mL
same,AUCINF_pred,KO (Slc28a1-/-) mice,23822.1 ng·min/mL and 12581.1 ng·min/mL and 71800.6 ng·min/mL and 28058.9 ng·min/mL and 72962.4 ng·min/mL and 83955.6 ng·min/mL
same,AUC_%Back_Ext_obs,KO (Slc28a1-/-) mice,0.5829% and 5.828% and 0.4312% and 2.002% and 0.5682% and 0.06111%
same,AUC_%Back_Ext_pred,KO (Slc28a1-/-) mice,0.6232% and 6.304% and 0.4505% and 2.131% and 0.5957% and 0.06367%
same,AUC_%Extrap_obs,KO (Slc28a1-/-) mice,67.4874% and 53.7747% and 79.3116% and 67.9349% and 78.2847% and 81.1285%
same,AUC_%Extrap_pred,KO (Slc28a1-/-) mice,65.2397% and 50.0019% and 78.3872% and 65.875% and 77.2323% and 80.3371%
same,AUCall,KO (Slc28a1-/-) mice,8280.65 ng·min/mL and 6290.29 ng·min/mL and 15518.1 ng·min/mL and 9575.11 ng·min/mL and 16611.9 ng·min/mL and 16508.1 ng·min/mL
same,AUClast,KO (Slc28a1-/-) mice,8280.65 ng·min/mL and 6290.29 ng·min/mL and 15518.1 ng·min/mL and 9575.11 ng·min/mL and 16611.9 ng·min/mL and 16508.1 ng·min/mL
same,AUClast_D,KO (Slc28a1-/-) mice,165.613 kg·ng·min/mL/mg and 125.806 kg·ng·min/mL/mg and 310.363 kg·ng·min/mL/mg and 191.502 kg·ng·min/mL/mg and 332.237 kg·ng·min/mL/mg and 330.163 kg·ng·min/mL/mg
same,AUMCINF_obs,KO (Slc28a1-/-) mice,14271006 min*min*ng/mL and 5009676 min*min*ng/mL and 73111057 min*min*ng/mL and 17625971 min*min*ng/mL and 70582595 min*min*ng/mL and 93013834 min*min*ng/mL
same,AUMCINF_pred,KO (Slc28a1-/-) mice,12992303 min*min*ng/mL and 4388328 min*min*ng/mL and 69264936 min*min*ng/mL and 16149841 min*min*ng/mL and 66527378 min*min*ng/mL and 88496254 min*min*ng/mL
same,AUMC_%Extrap_obs,KO (Slc28a1-/-) mice,93.5147% and 88.3871% and 97.5522% and 94.251% and 97.3007% and 97.8918%
same,AUMC_%Extrap_pred,KO (Slc28a1-/-) mice,92.8764% and 86.7428% and 97.4162% and 93.7255% and 97.1361% and 97.7841%
same,AUMClast,KO (Slc28a1-/-) mice,925521 min*min*ng/mL and 581771 min*min*ng/mL and 1789646 min*min*ng/mL and 1013321 min*min*ng/mL and 1905271 min*min*ng/mL and 1960946 min*min*ng/mL
same,Cl_pred,KO (Slc28a1-/-) mice,2098.89 mL/min/kg and 3974.23 mL/min/kg and 696.373 mL/min/kg and 1781.96 mL/min/kg and 685.285 mL/min/kg and 595.553 mL/min/kg
same,Clast,KO (Slc28a1-/-) mice,32.0426 ng/mL and 20.0426 ng/mL and 62.0426 ng/mL and 35.0426 ng/mL and 66.0426 ng/mL and 68.0426 ng/mL
same,Clast_pred,KO (Slc28a1-/-) mice,28.9724 ng/mL and 17.2301 ng/mL and 58.6968 ng/mL and 31.9288 ng/mL and 62.1429 ng/mL and 64.6666 ng/mL
same,Cmax,KO (Slc28a1-/-) mice,49.2745 ng/mL and 91.6911 ng/mL and 79.2745 ng/mL and 88.6911 ng/mL and 85.6911 ng/mL and 85.2745 ng/mL
same,Cmax_D,KO (Slc28a1-/-) mice,0.9855 kg·ng/mL/mg and 1.834 kg·ng/mL/mg and 1.585 kg·ng/mL/mg and 1.774 kg·ng/mL/mg and 1.714 kg·ng/mL/mg and 1.705 kg·ng/mL/mg
same,HL_Lambda_z,KO (Slc28a1-/-) mice,371.821 min and 253.07 min and 664.637 min and 401.268 min and 628.538 min and 722.954 min
same,Lambda_z,KO (Slc28a1-/-) mice,0.001864 min⁻¹ and 0.002739 min⁻¹ and 0.001043 min⁻¹ and 0.001727 min⁻¹ and 0.001103 min⁻¹ and 0.0009588 min⁻¹
same,MRTINF_obs,KO (Slc28a1-/-) mice,560.327 min and 368.145 min and 974.7 min and 590.258 min and 922.666 min and 1063.3 min
same,MRTINF_pred,KO (Slc28a1-/-) mice,545.388 min and 348.805 min and 964.684 min and 575.569 min and 911.804 min and 1054.08 min
same,MRTlast,KO (Slc28a1-/-) mice,111.769 min and 92.4871 min and 115.326 min and 105.829 min and 114.693 min and 118.787 min
same,Tlast,KO (Slc28a1-/-) mice,240 min
same,Tmax,KO (Slc28a1-/-) mice,10 min and 5 min
same,Vss_obs,KO (Slc28a1-/-) mice,1100017 mL/kg and 1352688 mL/kg and 649724 mL/kg and 988326 mL/kg and 603062 mL/kg and 607760 mL/kg
same,Vss_pred,KO (Slc28a1-/-) mice,1144708 mL/kg and 1386230 mL/kg and 671779 mL/kg and 1025643 mL/kg and 624846 mL/kg and 627762 mL/kg
same,Vz_obs,KO (Slc28a1-/-) mice,1053090 mL/kg and 1341512 mL/kg and 639170 mL/kg and 969320 mL/kg and 592684 mL/kg and 596160 mL/kg
same,Vz_pred,KO (Slc28a1-/-) mice,1125894 mL/kg and 1451004 mL/kg and 667729 mL/kg and 1031591 mL/kg and 621408 mL/kg and 621163 mL/kg
same,AUCINF_D_obs,WT (Slc28a1+/+) mice,627.983 kg·ng·min/mL/mg and 293.244 kg·ng·min/mL/mg and 2095.28 kg·ng·min/mL/mg and 746.583 kg·ng·min/mL/mg and 2357.3 kg·ng·min/mL/mg and 2481.13 kg·ng·min/mL/mg
same,AUCINF_D_pred,WT (Slc28a1+/+) mice,611.177 kg·ng·min/mL/mg and 283.996 kg·ng·min/mL/mg and 2059.29 kg·ng·min/mL/mg and 727.87 kg·ng·min/mL/mg and 2318.74 kg·ng·min/mL/mg and 2441.28 kg·ng·min/mL/mg
same,AUCINF_obs,WT (Slc28a1+/+) mice,31399.2 ng·min/mL and 14662.2 ng·min/mL and 104764 ng·min/mL and 37329.2 ng·min/mL and 117865 ng·min/mL and 124056 ng·min/mL
same,AUCINF_pred,WT (Slc28a1+/+) mice,30558.9 ng·min/mL and 14199.8 ng·min/mL and 102964 ng·min/mL and 36393.5 ng·min/mL and 115937 ng·min/mL and 122064 ng·min/mL
same,AUC_%Back_Ext_obs,WT (Slc28a1+/+) mice,0.6002% and 4.658% and 0.3469% and 1.514% and 0.3975% and 0.07533%
same,AUC_%Back_Ext_pred,WT (Slc28a1+/+) mice,0.6167% and 4.81% and 0.353% and 1.5528% and 0.4041% and 0.07656%
same,AUC_%Extrap_obs,WT (Slc28a1+/+) mice,74.9814% and 61.0207% and 85.5932% and 75.6831% and 86.2719% and 87.0356%
same,AUC_%Extrap_pred,WT (Slc28a1+/+) mice,74.2934% and 59.7514% and 85.3414% and 75.0579% and 86.0436% and 86.824%
same,AUCall,WT (Slc28a1+/+) mice,7855.65 ng·min/mL and 5715.22 ng·min/mL and 15093.1 ng·min/mL and 9077.31 ng·min/mL and 16180.6 ng·min/mL and 16083.1 ng·min/mL
same,AUClast,WT (Slc28a1+/+) mice,7855.65 ng·min/mL and 5715.22 ng·min/mL and 15093.1 ng·min/mL and 9077.31 ng·min/mL and 16180.6 ng·min/mL and 16083.1 ng·min/mL
same,AUClast_D,WT (Slc28a1+/+) mice,157.113 kg·ng·min/mL/mg and 114.304 kg·ng·min/mL/mg and 301.863 kg·ng·min/mL/mg and 181.546 kg·ng·min/mL/mg and 323.613 kg·ng·min/mL/mg and 321.663 kg·ng·min/mL/mg
same,AUMCINF_obs,WT (Slc28a1+/+) mice,25618307 min*min*ng/mL and 7382666 min*min*ng/mL and 159455048 min*min*ng/mL and 32660009 min*min*ng/mL and 190278277 min*min*ng/mL and 207071348 min*min*ng/mL
same,AUMCINF_pred,WT (Slc28a1+/+) mice,24735428 min*min*ng/mL and 7028934 min*min*ng/mL and 156289942 min*min*ng/mL and 31610468 min*min*ng/mL and 186705642 min*min*ng/mL and 203285848 min*min*ng/mL
same,AUMC_%Extrap_obs,WT (Slc28a1+/+) mice,96.5565% and 92.707% and 98.9048% and 97.0301% and 99.0215% and 99.0739%
same,AUMC_%Extrap_pred,WT (Slc28a1+/+) mice,96.4336% and 92.3399% and 98.8827% and 96.9315% and 99.0028% and 99.0567%
same,AUMClast,WT (Slc28a1+/+) mice,882171 min*min*ng/mL and 538421 min*min*ng/mL and 1746296 min*min*ng/mL and 969971 min*min*ng/mL and 1861921 min*min*ng/mL and 1917596 min*min*ng/mL
same,Cl_pred,WT (Slc28a1+/+) mice,1636.19 mL/min/kg and 3521.18 mL/min/kg and 485.605 mL/min/kg and 1373.87 mL/min/kg and 431.268 mL/min/kg and 409.621 mL/min/kg
same,Clast,WT (Slc28a1+/+) mice,29.0426 ng/mL and 17.0426 ng/mL and 59.0426 ng/mL and 32.0426 ng/mL and 63.0426 ng/mL and 65.0426 ng/mL
same,Clast_pred,WT (Slc28a1+/+) mice,28.006 ng/mL and 16.1618 ng/mL and 57.8576 ng/mL and 30.9814 ng/mL and 61.8472 ng/mL and 63.8424 ng/mL
same,Cmax,WT (Slc28a1+/+) mice,69.2745 ng/mL and 99.6911 ng/mL and 99.2745 ng/mL and 96.6911 ng/mL and 103.275 ng/mL and 105.275 ng/mL
same,Cmax_D,WT (Slc28a1+/+) mice,1.385 kg·ng/mL/mg and 1.994 kg·ng/mL/mg and 1.985 kg·ng/mL/mg and 1.934 kg·ng/mL/mg and 2.065 kg·ng/mL/mg and 2.105 kg·ng/mL/mg
same,HL_Lambda_z,WT (Slc28a1+/+) mice,561.904 min and 363.887 min and 1052.72 min and 611.146 min and 1118.01 min and 1150.65 min
same,Lambda_z,WT (Slc28a1+/+) mice,0.001234 min⁻¹ and 0.001905 min⁻¹ and 0.0006584 min⁻¹ and 0.001134 min⁻¹ and 0.00062 min⁻¹ and 0.0006024 min⁻¹
same,MRTINF_obs,WT (Slc28a1+/+) mice,815.891 min and 503.517 min and 1522.04 min and 874.919 min and 1614.37 min and 1669.17 min
same,MRTINF_pred,WT (Slc28a1+/+) mice,809.436 min and 495.003 min and 1517.9 min and 868.575 min and 1610.4 min and 1665.4 min
same,MRTlast,WT (Slc28a1+/+) mice,112.298 min and 94.2083 min and 115.701 min and 106.857 min and 115.071 min and 119.23 min
same,Tlast,WT (Slc28a1+/+) mice,240 min
same,Tmax,WT (Slc28a1+/+) mice,10 min and 5 min
same,Vss_obs,WT (Slc28a1+/+) mice,1299224 mL/kg and 1717058 mL/kg and 726413 mL/kg and 1171898 mL/kg and 684839 mL/kg and 672746 mL/kg
same,Vss_pred,WT (Slc28a1+/+) mice,1324388 mL/kg and 1742993 mL/kg and 737100 mL/kg and 1193310 mL/kg and 694517 mL/kg and 682183 mL/kg
same,Vz_obs,WT (Slc28a1+/+) mice,1290887 mL/kg and 1790244 mL/kg and 724843 mL/kg and 1180977 mL/kg and 684235 mL/kg and 669067 mL/kg
same,Vz_pred,WT (Slc28a1+/+) mice,1326384 mL/kg and 1848542 mL/kg and 737512 mL/kg and 1211340 mL/kg and 695614 mL/kg and 679987 mL/kg
